From US6982257B1, “Vitamin D3 derivative and its production method” (Teijin Limited, priority 1997, dated 2006) come the findings set out here.

SMILES strings stand for the structures.

Assay [1] has as its target T1, bovine thymus 1α,25-dihydroxyvitamin D3 receptor (VDR) (Bos taurus, UniProt Q28037).
T1 sequence (Q28037 1-426): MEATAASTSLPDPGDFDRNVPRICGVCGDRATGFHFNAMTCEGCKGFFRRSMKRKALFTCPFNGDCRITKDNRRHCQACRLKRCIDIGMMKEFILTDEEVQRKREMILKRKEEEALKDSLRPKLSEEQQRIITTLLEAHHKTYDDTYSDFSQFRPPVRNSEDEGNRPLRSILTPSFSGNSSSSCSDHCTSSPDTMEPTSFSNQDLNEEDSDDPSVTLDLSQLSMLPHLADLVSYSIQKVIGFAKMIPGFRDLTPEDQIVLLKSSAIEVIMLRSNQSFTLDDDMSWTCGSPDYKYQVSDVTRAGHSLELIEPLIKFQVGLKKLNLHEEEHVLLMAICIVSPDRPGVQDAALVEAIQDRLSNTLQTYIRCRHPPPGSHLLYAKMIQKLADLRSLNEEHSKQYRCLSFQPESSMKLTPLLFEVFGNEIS
To be noted: relative intensity ratio based on 100 for 1α,25-dihydroxyvitamin D3, from the concentration inhibiting [3H]1α,25-dihydroxyvitamin D3 (0.1 nM) binding by 50%.
Protocol: The content (about 25 mg) of an ampule of a bovine thymus vitamin D receptor kit made by Yamasa Shoyu Ltd. was dissolved in 55 ml of a 0.05 M phosphoric acid-0.5 M potassium buffer solution (pH 7.4). Fifty μl of the ethanol solution of a compound to be tested and 500 μl of the receptor solution were pre-incubated at room temperature for 1 hr. […] To 500 μl of the supernatant, 9.5 ml of a liquid scintillation cocktail (ACS-II) was added, and the radioactivity of the resultant mixture was measured by a liquid scintillation counter.

The next assay has as its system HL-60 cell. Nature of the assay: Differentiation induction of HL-60 cell, nitroblue tetrazolium (NBT) reduction activity. The assay is classed as cell-based. The conditions noted are these: HL-60, 4 days culture. The source says:
Activities of Objective Compounds of the Present Invention on Differentiation Induction effect of HL-60 Cell
HL-60 cell was purchased from a cell bank (Japanese Cancer Research Resource Bank, Cell Number: JCRB 0085). The cell was stored as a frozen storage stock for preventing the change of cell characteristics attributable to successive cultivation. Before the initiation of experiments, the cell was defrosted, and successive cultivation was started for using the cell in the experiments. The cell which had been treated by successive culturing for about one to six months was used for the experiments. The successive culturing was carried out by centrifugally recovering cells from cultivation mixture in suspension culture, and diluting the collected cell concentrate in a fresh culture medium at a ratio of about 1/100 (1−2×10^5 cells/ml). As the culture medium, an RPMI-1640 medium containing 10% fetal bovine serum was used. Successively cultured cells were centrifugally collected, and they were dispersed in a culture medium at the concentration of 2×10^4 cells/ml. The dispersion was seeded into a 24-well culture petri dish at 1 ml/well. An ethanol solution (1×10^−9M to 1×10^−6M) of a compound of the present invention was added to this system at 1 μl/well. Further, regarding 1 α,25(OH)2D3, an ethanol solution of 1×10^−7 M to 1×10^−4 M was added at 1 μl/well, and for the control, ethanol was added at 1 μl/well. After culturing at 37° C. for 4 days under a 5% CO2 atmosphere, the cells were centrifugally collected. Nitroblue tetrazolium (NBT) reduction activity was determined as follows. That is, the collected cells were suspended in a fresh culture medium, and NBT and 12-O-tetradecanoylphorbol-13-acetate were added to the resultant suspension so that their concentrations became 0.1% and 100 nM, respectively. After the mixed suspension was incubated at 37° C. for 25 min, a cytospin sample was prepared. After air drying, it was stained with Kernechtrot, and the ratio of the positive cells of NBT reduction activity was determined under an optical microscope.
Activities of Compounds of the Present Invention on Nitroblue Tetrazolium

In the case of `C=C1C(=CC=C2CCCC3(C)C2CCC3C(C)CCCC(C)(C)O)CC(O)C(C)C1O` [Compound (65), (20R)-1α,25-dihydroxy-2β-methyl-3β vitamin D3, reference compound], the “Binding Affinity for VDR” value in assay [1] is given as 13.
Turning to `C=C1C(=CC=C2CCCC3(C)C2CCC3C(C)CCCC(C)(C)O)CC(O)C(C)C1O` [Compound (3), (20R)-1β,25-dihydroxy-2β-methyl-3β vitamin D3, reference compound], the “Binding Affinity for VDR” value in assay [1] stood at 0.8.
Regarding `C=C1/C(=C\C=C2/CCC[C@]3(C)[C@@H]([C@H](C)CCCC(C)(C)O)CC[C@@H]23)C[C@@H](O)C[C@@H]1O` [1α,25-(OH)2VD3, 1α,25-dihydroxyvitamin D3, reference compound], the “Positive cells (%) of nitroblue tetrazolium reduction activity” value with HL-60 cell (concentration 10^−7 M) stood at 96.5 ± 1.0%; in the assay on HL-60 cell (concentration 10^−8 M) it was 86.1 ± 2.6%; in the assay on HL-60 cell (concentration 10^−9 M), 36.8 ± 2.0%; in the assay on HL-60 cell (concentration 10^−10 M) it was 4.3 ± 1.2%.
Turning to `C=C1/C(=C\C=C2/CCC[C@]3(C)[C@@H]([C@@H](C)CCCC(C)(C)O)CC[C@@H]23)C[C@H](O)[C@H](C)[C@@H]1O` [Compound (74), (20S)-1α,25-dihydroxy-2α-methyl-3α-vitamin D3], the “Binding Affinity for VDR” value in assay [1] is reported as 17. The “Positive cells (%) of nitroblue tetrazolium reduction activity” value is listed as 96.4 ± 1.4% in the assay with HL-60 cell (concentration 10^−9 M), 16.7 ± 1.1% in the assay with HL-60 cell (concentration 10^−10 M), 17.0 ± 2.3% in the assay with HL-60 cell (concentration 10^−11 M) and 6.4 ± 1.1% in the assay on HL-60 cell (concentration 10^−12 M).
In the case of `C=C1C(=CC=C2CCCC3(C)C2CCC3C(C)CCCC(C)(C)O)CC(O)C(C)C1O` [Compound (6), (20R)-1α,25-dihydroxy-2α-methyl-3α vitamin D3, reference compound], the “Binding Affinity for VDR” value in assay [1] is given as 4.
Same read-out and setting: in the case of `C=C1/C(=C\C=C2/CCC[C@]3(C)[C@@H]([C@@H](C)CCCC(C)(C)O)CC[C@@H]23)C[C@@H](O)[C@@H](C)[C@H]1O` [Compound (69), (20S)-1β,25-dihydroxy-2β-methyl-3β-vitamin D3] it was 0.03.
Still for that read-out and setting: in the case of `C=C1C(=CC=C2CCCC3(C)C2CCC3C(C)CCCC(C)(C)O)CC(O)C(C)C1O` [Compound (1), (20R)-1β,25-dihydroxy-2β-methyl-3β vitamin D3, reference compound] it was 0.05; in that of `C=C1/C(=C\C=C2/CCC[C@]3(C)[C@@H]([C@@H](C)CCCC(C)(C)O)CC[C@@H]23)C[C@H](O)[C@H](C)[C@H]1O` [Compound (75), (20S)-1β,25-dihydroxy-2α-methyl-3α-vitamin D3], 0.03; in that of `C=C1C(=CC=C2CCCC3(C)C2CCC3C(C)CCCC(C)(C)O)CC(O)C(C)C1O` [Compound (2), (20R)-1α,25-dihydroxy-2β-methyl-3α vitamin D3, reference compound], 0.3.
For `C=C1/C(=C\C=C2/CCC[C@]3(C)[C@@H]([C@@H](C)CCCC(C)(C)O)CC[C@@H]23)C[C@H](O)[C@@H](C)[C@H]1O` [Compound (71), (20S)-1β,25-dihydroxy-2β-methyl-3α-vitamin D3], the “Binding Affinity for VDR” value in assay [1] was determined as 7. The “Positive cells (%) of nitroblue tetrazolium reduction activity” value turned out to be 40.5 ± 1.8% with HL-60 cell (concentration 10^−9 M), 2.0 ± 1.0% in the assay on HL-60 cell (concentration 10^−10 M), 1.8 ± 0.8% with HL-60 cell (concentration 10^−11 M) and 1.5 ± 0.8% with HL-60 cell (concentration 10^−12 M).
As to `C=C1C(=CC=C2CCCC3(C)C2CCC3C(C)CCCC(C)(C)O)CC(O)C(C)C1O` [Compound (4), (20R)-1α,25-dihydroxy-2α-methyl-3β vitamin D3, reference compound], the “Binding Affinity for VDR” value in assay [1] is recorded as 400.
For the molecule `C=C1C(=CC=C2CCCC3(C)C2CCC3C(C)CCCC(C)(C)O)CC(O)C(C)C1O` [Compound (72), (20S)-1α,25-dihydroxy-2α-methyl-3β-vitamin D3], the “Binding Affinity for VDR” value in assay [1] is given as 1200. Besides, the “Positive cells (%) of nitroblue tetrazolium reduction activity” value in the assay with HL-60 cell (concentration 10^−9 M) amounted to 96.2 ± 2.0%; in the assay on HL-60 cell (concentration 10^−10 M), 95.7 ± 2.3%; in the assay on HL-60 cell (concentration 10^−11 M), 94.4 ± 1.8%; with HL-60 cell (concentration 10^−12 M), 3.7 ± 0.8%.
For `C=C1/C(=C\C=C2/CCC[C@]3(C)[C@@H]([C@@H](C)CCCC(C)(C)O)CC[C@@H]23)C[C@H](O)[C@@H](C)[C@@H]1O` [Compound (70), (20S)-1α,25-dihydroxy-2β-methyl-3α-vitamin D3], in assay [1], the “Binding Affinity for VDR” value came out at 0.08.
Turning to `C=C1C(=CC=C2CCCC3(C)C2CCC3C(C)CCCC(C)(C)O)CC(O)C(C)C1O` [Compound (5), (20R)-1β,25-dihydroxy-2α-methyl-3β vitamin D3, reference compound], in assay [1], the “Binding Affinity for VDR” value turned out to be 0.05.
The same measure, in the same setting: the value for `C=C1C(=CC=C2CCCC3(C)C2CCC3C(C)CCCC(C)(C)O)CC(O)C(C)C1O` [Compound (7), (20R)-1β,25-dihydroxy-2α-methyl-3α vitamin D3, reference compound] was 0.06; that for `C=C1/C(=C\C=C2/CCC[C@]3(C)[C@@H]([C@@H](C)CCCC(C)(C)O)CC[C@@H]23)C[C@@H](O)[C@H](C)[C@H]1O` [Compound (73), (20S)-1β,25-dihydroxy-2α-methyl-3β-vitamin D3] was 0.05.
Take `C=C1/C(=C\C=C2/CCC[C@]3(C)[C@@H]([C@@H](C)CCCC(C)(C)O)CC[C@@H]23)C[C@@H](O)[C@@H](C)[C@@H]1O` [Compound (68), (20S)-1α,25-dihydroxy-2β-methyl-3β-vitamin D3]: the “Binding Affinity for VDR” value in assay [1] came to 160. Besides, the “Positive cells (%) of nitroblue tetrazolium reduction activity” value was found to be 95.7 ± 1.0% in the assay on HL-60 cell (concentration 10^−9 M), 57.7 ± 5.0% with HL-60 cell (concentration 10^−10 M), 2.8 ± 0.7% in the assay with HL-60 cell (concentration 10^−11 M) and 1.7 ± 0.3% with HL-60 cell (concentration 10^−12 M).
